Reference: publication PMC5556071, “ATR inhibition facilitates targeting of leukemia dependence on convergent nucleotide biosynthetic pathways” (Nature Communications, 2017)
Values joined by “and” are separate entries in the source; they are usually repeats but may differ in a detail not shown here. Identical values can stand only once.

Tested on: asynchronous CEM cells
Experiment: Quantitative global proteomics (nLC-MS/MS), asynchronous cells
Assay type: cell-based, human
Protocol: To investigate the molecular mechanisms underlying the metabolic consequences of ATR and dCK inhibition, global changes in protein expression were assessed in CEM cells using quantitative nano-LC tandem MS (nLC-MS/MS) (Fig. 2a). Chemical isotope coding following reductive dimethylation of peptide N-termini and lysine primary amines with differential stable isotopes (light:medium:heavy) was used to compare expression of experimental (VE-822, dCKi and VE-822 + dCKi) samples to controls (untreated, NT) by mixing equal proportions for triplex nLC-MS/MS quantitative analyses. The data set was filtered for proteins identified in all treatment groups in three independent experiments with coefficients of variation <20%. This yielded 1757 proteins with relative fold changes in treated vs. untreated cells ranging from 0.45 to 1.83. […] Protein levels of both RNR subunits, RRM1 and RRM2, as well as thymidylate synthase decreased by more than 20% following ATR inhibition (Fig. 2c). Changes in the expression of de novo enzymes observed in synchronous cells also occurred with ATR inhibition in asynchronous CEM cells (Fig. 2d and Supplementary Data 3), thereby arguing against the possibility of experimental artifacts introduced by Palbociclib-mediated cell cycle synchronization. The reduction in RRM2 levels induced by ATR inhibition was accompanied by an ~ 50% decrease in the phosphorylation of RRM2 on threonine 33 (pT33) (Fig. 2e), a phosphosite previously linked to the RRM2 stability. […]
Proteomic analyzes. CCRF-CEM cells were treated ± with a CDK4/6 inhibitor, PD-0332991 (Selleckchem) for 18 h to arrest at G1 phase. Cells were then washed twice with PBS and released in fresh media with treatment at a density of 1 x 10^6 cells/mL. Cells were collected at 12 h, washed twice with ice-cold PBS, and lysed by trituration using 1 mL per 5 x 10^7 cells of 0.5% sodium deoxycholate, 12 mM sodium lauryl sarcosine, and 50 mM triethylammonium bicarbonate, pH 8.0. Lysates were heated at 95 °C for 5 min and water bath sonicated at room temperature (RT) for 5 min. Bicinchoninic acid protein assay (Pierce) was performed to determine protein concentration. Disulfide bridges were reduced with 5 mM tris(2-carboxyethyl)phosphine (final concentration) at RT for 30 min with subsequent treatment with 10 mM iodoacetamide (final concentration) at RT in the dark for 30 min. Solutions were diluted 1:5 (v:v) with 50 mM triethylammonium bicarbonate. Proteins were cleaved with sequencing grade trypsin (Promega) at 1:100 (enzyme:protein) for 4 h at 37 °C followed by a second aliquot of trypsin 1:100 (enzyme:protein) overnight at 37 °C. Samples were acidified with 0.5% trifluoroacetic acid (final concentration), vortexed rapidly for 5 min, and centrifuged (16,000 x g for 5 min, RT) to pellet sodium deoxycholate. Supernatants were transferred to new microcentrifuge tubes and 20 µg of total peptide were desalted using C18 StageTips as previously described2. On-column dimethyl labeling using C18 StageTips was performed as previously described3. Briefly, StageTips were equilibrated with 20 μL of 250 mM 2-(N-morpholino)ethanesulfonic acid (MES) pH 5.5. Tryptic peptides were dimethyl labeled using 60 mM sodium cyanoborohydride, 0.4% formaldehyde, and 250 mM MES pH 5.5 for 10 min. Dimethyl labeled peptides were eluted from StageTips using 20 μL of 80% acetonitrile with 0.1% trifluoroacetic acid and lyophilized to dryness. […]

[1] = 1 µM VE-822, 12 h, analyses #1-#3

CNCc1ccc(-c2cc(-c3nc(-c4ccc(S(=O)(=O)C(C)C)cc4)cnc3N)on2)cc1 [VE-822]
Protein expression level normalized to control (NT): Apoptosis regulatory protein Siva (SIVA1) [1]: 0.5843 and 0.5702 and 0.5605 | Protein expression level normalized to control (NT): Aspartate--tRNA ligase, cytoplasmic (DARS) [1]: 0.9056 and 0.9095 | Protein expression level normalized to control (NT): Eukaryotic translation initiation factor 2 subunit 3 (EIF2S3;EIF2S3L) [1]: 0.9499 and 0.9479 and 0.9485 | Protein expression level normalized to control (NT): GA-binding protein alpha chain (GABPA) [1]: 0.6147 and 0.6159 and 0.6369 | observed fold decrease in total RRM2 protein (proteomic nLC-MS/MS) (asynchronous CEM, VE-822 1 µM, 12 h): 0.77 fold
